Source: patent US8691817B2, “Sulfonic amide and sulfoximine-substituted diaryl-dihydropyrimidinones and usage thereof” (Bayer Intellectual Property GmbH, priority 2009, dated 2014)
Values after ≈ are worked out from the molar mass of the structure shown.

Tests used:
rat hepatocytes = assay: Hepatocyte assay to determine the metabolic stability; format: in vitro ADME; settings: for Fmax, maximum possible bioavailability after oral administration (well-stirred): rat
Method: Seven samples of the incubation solution are taken in a fixed time pattern for the […] analysis in order to determine the half-life (i.e. the degradation) of the compound in each case. Various clearance parameters (CL) and Fmax values are calculated from this half-life (see below).
The Cl and Fmax values represent a measure of the phase 1 and phase 2 metabolism of the compounds in the hepatocytes. In order to minimize the influence of the organic solvent on the enzymes in the incubation mixtures, this concentration is generally limited to 1% (acetonitrile) or 0.1% (DMSO).
A cell count for hepatocytes in the liver of 1.1*10^8 cells/g of liver is used for calculation for all species and breeds.
The calculated parameters and their meaning are: • Fmax well-stirred [%] maximum possible bioavailability after oral administration • Calculation: (1-CLblood well-stirred/QH)*100 • CLblood well-stirred [L/(h*kg)] calculated blood clearance (well-stirred model) • Calculation: (QH*CL′intrinsic)/(QH+CL′intrinsic) • CL′intrinsic [ml/(min*kg] maximum ability of the liver (of the hepatocytes) to metabolize a compound (on the assumption that the hepatic blood flow is not rate-limiting) • Calculation: CL′intrinsic, apparent*species-specific hepatocyte count [1.1* 10^8/g of liver]*species-specific liver weight [g/kg] • CL′intrinsic, apparent [ml/(min*mg)] normalizes the elimination constant by dividing it by the hepatocyte cell count x (x*10^6/ml) employed • Calculation: ke1 [1/min]/(cell count [x*10^6]/incubation volumes [ml]) • (QH=species-specific hepatic blood flow).

[1] = Determination of the solubility in PBS buffer pH 6.5; format: physicochemical; settings: 20° C.
Method: B-7. Determination of the Solubility Reagents Required: • PBS buffer pH 6.5: 90.00 g of NaCl p.a. […] Preparation of the Starting Solution (Original Solution):
10 μl of the original solution are transferred into a microtiter plate, and 1000 μl of PBS buffer pH 6.5 are added.
From each of the sample solutions, 100 μl of the supernatant are removed and diluted 1:5 and 1:100 with DMSO. From each dilution, a sample is transferred into a vessel suitable for HPLC analysis.
The samples are analysed by RP-HPLC. Quantification is carried out using a two-point calibration curve of the test compound in DMSO. The solubility is expressed in mg/liter. Analysis sequence: 1) calibration solution […]; 2) calibration solution 20 μg/ml; 3) sample solution 1:5; 4) sample solution 1:100.

[2] = target: T1, human neutrophil elastase (HNE) (Homo sapiens, UniProt P08246); assay: In vitro HNE inhibition assay; format: biochemical; settings: HNE concentration of 80 pM; substrate MeOSuc-Ala-Ala-Pro-Val-AMC; 37° C., 2 hours
T1 construct: purchased Serva, Heidelberg
T1 sequence (P08246 30-267): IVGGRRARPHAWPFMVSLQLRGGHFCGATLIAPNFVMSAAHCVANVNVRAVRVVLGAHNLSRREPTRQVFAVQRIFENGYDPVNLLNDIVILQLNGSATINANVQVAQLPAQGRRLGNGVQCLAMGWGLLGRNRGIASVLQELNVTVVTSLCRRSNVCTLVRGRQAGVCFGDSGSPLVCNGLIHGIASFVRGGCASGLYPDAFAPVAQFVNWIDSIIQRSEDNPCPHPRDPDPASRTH
Method: The potency of the compounds of the invention is ascertained in an in vitro inhibition assay. The HNE-mediated amidolytic cleavage of a suitable peptide substrate leads in this connection to an increase in the fluorescent light. The signal intensity of the fluorescent light is directly proportional to the enzyme activity.
Enzyme (80 pM HNE; from Serva, Heidelberg) and substrate (20 μM MeOSuc-Ala-Ala-Pro-Val-AMC; from Bachem, Weil am Rhein) are incubated in an assay volume of in total 50 μl of assay buffer (0.1 M HEPES pH 7.4, 0.5 M NaCl, 0.1% w/v BSA, 1% v/v DMSO) in a 384-well microtiter plate in the presence and absence of the test substance at 37° C. for 2 hours.

Row | Structure (SMILES) | IC50 [2] [nM] | CLblood, calculated blood clearance (well-stirred) (rat hepatocytes; hepatocytes) [mL/min/kg] | Fmax, maximum possible bioavailability after oral administration (well-stirred) (rat hepatocytes) [%] | also measured
1 | CC1=C(C#N)[C@@H](c2ccc(C#N)cc2S(C)(=N)=O)N(C)C(=O)N1c1cccc(C(F)(F)F)c1 (mixture of isomers) [Example 38, (SS)-(4S)-4-[4-Cyano-2-(S-methylsulfonimidoyl)phenyl]-3,6-dimethyl-2-oxo-1-[3-(trifluoromethyl)phenyl]-1,2,3,4-tetrahydropyrimidine-5-carbonitrile or (RS)-(4S)-4-[4-cyano-2-(S-methylsulfonimidoyl)phenyl]-3,6-dimethyl-2-oxo-1-[3-(trifluoromethyl)phenyl]-1,2,3,4-tetrahydropyrimidine-5-carbonitrile] |  |  |  | CLblood, calculated blood clearance (well-stirred) (rat hepatocytes; after incubation with rat hepatocytes): 0 mL/min/kg; Solubility ([1]; 24 hours): 300 µg/mL (≈ 634 µM)
2 | CC1=C(C#N)[C@@H](c2ccc(C#N)cc2S(C)(=N)=O)NC(=O)N1c1cccc(C(F)(F)F)c1 (mixture of isomers) [Example 41, (SS)-(4S)-4-[4-Cyano-2-(S-methylsulfonimidoyl)phenyl]-6-methyl-2-oxo-1-[3-(trifluoromethyl)phenyl]-1,2,3,4-tetrahydropyrimidine-5-carbonitrile or (RS)-(4S)-4-[4-cyano-2-(S-methylsulfonimidoyl)phenyl]-6-methyl-2-oxo-1-[3-(trifluoromethyl)phenyl]-1,2,3,4-tetrahydropyrimidine-5-carbonitrile] | 0.9 | 0 | 100 | 
3 | CC1=C(C#N)[C@@H](c2ccc(C#N)cc2S(N)(=O)=O)NC(=O)N1c1cccc(C(F)(F)F)c1 [Example 1, 5-Cyano-2-{(4S)-5-cyano-6-methyl-2-oxo-1-[3-(trifluoromethyl)phenyl]-1,2,3,4-tetrahydropyrimidin-4-yl}benzenesulfonamide] | 0.4 | 1.7 | 97 | 
4 | CNS(=O)(=O)c1cc(C#N)ccc1[C@H]1NC(=O)N(c2cccc(C(F)(F)F)c2)C(C)=C1C#N [Example 2, 5-Cyano-2-{(4S)-5-cyano-6-methyl-2-oxo-1-[3-(trifluoromethyl)phenyl]-1,2,3,4-tetrahydropyrimidin-4-yl}-N-methylbenzenesulfonamide] | < 0.3 | 31.7 | 54 | 
5 | CC1=C(C#N)[C@@H](c2ccc(C#N)cc2S(=O)(=O)N(C)C)NC(=O)N1c1cccc(C(F)(F)F)c1 [Example 3, 5-Cyano-2-{(4S)-5-cyano-6-methyl-2-oxo-1-[3-(trifluoromethyl)phenyl]-1,2,3,4-tetrahydropyrimidin-4-yl}-N,N-dimethylbenzenesulfonamide] | < 0.3 |  |  | 
6 | CC1=C(C#N)[C@@H](c2ccc(C#N)cc2S(=O)(=O)N2CCOCC2)NC(=O)N1c1cccc(C(F)(F)F)c1 [Example 4, (4S)-4-[4-Cyano-2-(morpholin-4-ylsulfonyl)phenyl]-6-methyl-2-oxo-1-[3-(trifluoromethyl)phenyl]-1,2,3,4-tetrahydropyrimidine-5-carbonitrile] | < 0.3 |  |  | 
7 | CC1=C(C#N)[C@@H](c2ccc(C#N)cc2S(N)(=O)=O)N(C)C(=O)N1c1cccc(C(F)(F)F)c1 [Example 10, 5-Cyano-2-{(4S)-5-cyano-3,6-dimethyl-2-oxo-1-[3-(trifluoromethyl)phenyl]-1,2,3,4-tetrahydropyrimidin-4-yl}benzenesulfonamide] | < 0.3 |  |  | 
8 | CC1=C(C#N)[C@@H](c2ccc(C#N)cc2S(=O)(=O)NCCO)N(C)C(=O)N1c1cccc(C(F)(F)F)c1 [Example 11, 5-Cyano-2-{(4S)-5-cyano-3,6-dimethyl-2-oxo-1-[3-(trifluoromethyl)phenyl]-1,2,3,4-tetrahydropyrimidin-4-yl}-N-(2-hydroxyethyl)benzenesulfonamide] | < 0.3 |  |  | solubility at 24 h ([1]; aqueous buffer, kinetic from dmso stock): 300 µg/mL (≈ 577 µM)
9 | CC1=C(C#N)[C@@H](c2ccc(C#N)cc2S(=O)(=O)NCC(N)=O)N(C)C(=O)N1c1cccc(C(F)(F)F)c1 [Example 13, N^2-[(5-Cyano-2-{(4S)-5-cyano-3,6-dimethyl-2-oxo-1-[3-(trifluoromethyl)phenyl]-1,2,3,4-tetrahydropyrimidin-4-yl}phenyl)sulfonyl]glycinamide] | < 0.3 | 31.7 | 54 | 
10 | CC1=C(C#N)[C@@H](c2ccc(C#N)cc2S(=O)(=O)NCCCN2CCCC2=O)NC(=O)N1c1cccc(C(F)(F)F)c1 [Example 14] | 4.5 |  |  | 
11 | CC1=C(C#N)[C@@H](c2ccc(C#N)cc2S(=O)(=O)NCC2CCN(C)C2)NC(=O)N1c1cccc(C(F)(F)F)c1 (stereo partly drawn) [Example 21, 5-cyano-2-{(4S)-5-cyano-6-methyl-2-oxo-1-[3-(trifluoromethyl)phenyl]-1,2,3,4-tetrahydropyrimidin-4-yl}-N-[(1-methylpyrrolidin-3-yl)methyl]-benzenesulfonamide] | 0.7 |  |  | 
